# Measurements: US7393846B2, “Heterocyclic compounds useful for the treatment of inflammatory and allergic disorders” (Glenmark Pharmaceuticals, S.A., priority 2003, dated 2008)
# Structures can show the parent of a compound that is named as a salt. Where two headings read alike, the source gives them in different places.
# Columns and labels:
# [1] = target: PDE4 enzyme; experiment: Inhibition of Phosphodiesterase Enzymes (PDE4), [3H]cAMP hydrolysis assay; format: biochemical; conditions: for IC50: PDE4 inhibition, 1 μM cAMP, 34° C., 20 minutes
# Description: Inhibition of Phosphodiesterase Enzymes (PDE4)
# In this assay, PDE4 enzyme converts [^3H] cAMP to the corresponding [^3H] 5′-AMP in proportion to the amount of PDE4 present. The [^3H] 5′-AMP then was quantitatively converted to free [^3H] adenosine and phosphate by the action of snake venom 5′-nucleotidase.
# The assay was performed with modification of the method of Thompson and Appleman (Biochemistry; 1971; 10; 311-316) and Schwartz and Passoneau (Proc. Natl. Acad. Sci. U.S.A. 1974; 71; 3844-3848), both references incorporated herein by reference in their entirety, at 34° C. In a 200 ul total reaction mixture, the reaction mixture contained 12.5 mM of Tris, 5 mM MgCl2, 1 μM cAMP (cold) and ^3H cAMP (0.1 uCi), (Amersham). […] Drug samples were then added in the reaction mixture (25 μt/tube). The assay was initiated by addition of enzyme mix (75 μl) and the mixture was incubated for 20 minutes at 34° C. The reaction was stopped by boiling the tubes for 2 mins at 100° C. in a water bath. After cooling on ice for 5 minutes and addition of 50 ug/reaction of 5′-nucleotidase snake venom from Crotalus atrox incubation was carried out again for 20 min. at 34° C. The unreacted substrate was separated from (^3H) Adenosine by addition of Dowex AG 1-X8 (Biorad Lab), (400 ul) which was prequilibrated (1:1:1) in water and ethanol. Reaction mixture was then thoroughly mixed, placed on ice for 15 minutes, vortexed and centrifuged at 14,000 r.p.m. for 2 mins. After centrifugation, a sample of the supernatant was taken and added in 24 well optiplates containing Scintillant (1 ml) and mixed well. The samples in the plates were then determined for radioactivity in a Top Counter and the PDE4 activity was estimated. PDE4 enzyme was present in quantities that yield <30% total hydrolysis of substrate (linear assay conditions).
# Results were expressed as percent inhibition (IC50) in nM concentrations. The IC50 values were determined from the concentration curves by nonlinear regression analysis.
# [2] = tested on: PDE4; experiment: EC50 of the PDE4 results table (method not given)
SMILES,IC50 [1] [nM],EC50 [2] [nM],melting point [°C],IC50 ([1]; disodium salt) [nM],EC50 ([2]; disodium salt) [nM],percent inhibition ([1]; PDE4 inhibition at 1 uM) [% at 1 uM]
"COc1ccc(C(=O)Nc2c(Cl)cncc2Cl)c2c1oc1ccc(NC(C)=O)cc12 [Example 04, N-(3,5-dichloropyrid-4-yl)-4-methoxy-8-acetamido-dibenzo[b,d]furan-1-carboxamide]",1.18,13.6,252,–,–,–
"COc1ccc(C(=O)Nc2c(Cl)cncc2Cl)c2c1oc1ccc(NC(=O)C(F)(F)F)cc12 [Example 14, N-(3,5-dichloropyrid-4-yl)-4-methoxy-8-trifluoroacetamido-dibenzo[b,d]furan-1-carboxamide]",7.01,14.1,> 300,–,–,–
"CCOC(=O)Nc1ccc2oc3c(OC)ccc(C(=O)Nc4c(Cl)cncc4Cl)c3c2c1 [Example 15, N-(3,5-dichloropyrid-4-yl)-4-methoxy-8-ethoxycarboxamido-dibenzo[b,d]furan-1-carboxamide]",15.1,–,274,–,–,–
"COc1ccc(C(=O)Nc2c(Cl)cncc2Cl)c2c1oc1ccc(NC(=O)OCC3CC3)cc12 [Example 18, N-(3,5-dichloropyrid-4-yl)-4-methoxy-8-cyclopropylmethoxycarboxamido-dibenzo[b,d]furan-1-carboxamide]",3.47,19.1,272,–,–,–
"CCN(CC)C(=O)Nc1ccc2oc3c(OC)ccc(C(=O)Nc4c(Cl)cncc4Cl)c3c2c1 [Example 20, N-(3,5-dichloropyrid-4-yl)-4-methoxy-8-N,N-diethylaminocarboxamido-dibenzo[b,d]furan-1-carboxamide]",10.3,8.29,> 250,–,–,–
"CC(=O)Nc1ccc2oc3c(OC(F)F)ccc(C(=O)Nc4c(Cl)cncc4Cl)c3c2c1 [Example 34, N-(3,5-dichloropyrid-4-yl)-4-difluoromethoxy-8-acetamido-dibenzo[b,d]furan-1-carboxamide]",3.55,14.8,234,–,–,–
"O=C(O)C(=O)Nc1ccc2oc3c(OC(F)F)ccc(C(=O)Nc4c(Cl)cncc4Cl)c3c2c1 [Example 38, N-(3,5-dichloropyrid-4-yl)-4-difluoromethoxy-8-hydroxycarbonylcarboxamido-dibenzo[b,d]furan-1-carboxamide]",1.41,26.9,–,–,–,–
"O=C(O)C(=O)Nc1ccc2oc3c(OC(F)F)ccc(C(=O)Nc4c(Cl)cncc4Cl)c3c2c1 [Example 39, N-(3,5-dichloropyrid-4-yl)-4-difluoromethoxy-8-hydroxycarbonylcarboxamido-dibenzo[b,d]furan-1-carboxamide disodium salt]",–,–,–,0.598,9.19,–
"O=C(Nc1ccc2oc3c(OC(F)F)ccc(C(=O)Nc4c(Cl)cncc4Cl)c3c2c1)c1ccco1 [Example 40, N-(3,5-dichloropyrid-4-yl)-4-difluoromethoxy-8-fur-2-ylcarboxamido-dibenzo[b,d]furan-1-carboxamide]",22,11.3,–,–,–,–
"COc1ccc(C(=O)Nc2ccccc2)c2c1oc1ccc(NC(C)=O)cc12 [Example 41, N1-phenyl-4-methoxy-8-acetamido-dibenzo[b,d]furan-1-carboxamide]",156,–,252,–,–,–
"COc1ccc(NC(=O)c2ccc(OC)c3oc4ccc(NC(C)=O)cc4c23)cc1 [Example 42, N1-(4-methoxyphenyl)-4-methoxy-8-acetamido-dibenzo[b,d]furan-1-carboxamide]",959,–,285,–,–,–
"COc1ccc(C(=O)NCc2ccccc2)c2c1oc1ccc(NC(C)=O)cc12 [Example 43, N1-benzyl-4-methoxy-8-acetamido-dibenzo[b,d]furan-1-carboxamide]",–,–,264 to 265,–,–,17.93
"CCNC(=S)Nc1ccc2oc3c(OC)ccc(C(=O)Nc4c(Cl)cncc4Cl)c3c2c1 [Example 44, N-(3,5-dichloropyrid-4-yl)-4-methoxy-8-(ethylaminothiocarboxamido)-dibenzo[b,d]furan-1-carboxamide]",1.72,3.93,260,–,–,–
"CCCCNC(=S)Nc1ccc2oc3c(OC)ccc(C(=O)Nc4c(Cl)cncc4Cl)c3c2c1 [Example 45, N-(3,5-dichloropyrid-4-yl)-4-methoxy-8-(n-butylaminothiocarboxamido)-dibenzo[b,d]furan-1-carboxamide]",0.773,6.37,–,–,–,–
"COc1ccc(C(=O)Nc2cccnc2)c2c1oc1ccc(NC(C)=O)cc12 [Example 46, N1-(pyrid-3-yl)-4-methoxy-8-acetamido-dibenzo[b,d]furan-1-carboxamide]",134,–,> 250,–,–,–
"COc1ccc(C(=O)Nc2c(Cl)c[n+]([O-])cc2Cl)c2c1oc1ccc(NS(C)(=O)=O)cc12 [Example 48, N-(3,5-dichloropyrid-4-yl)-4-methoxy-8-methanesulfonamido-dibenzo[b,d]furan-1-carboxamide-N-oxide]",1.67,11.9,–,–,–,–
"COc1ccc(C(=O)Nc2ccncc2)c2c1oc1ccc(NC(C)=O)cc12 [Example 49, N-(pyrid-4-yl)-4-methoxy-8-acetamido-dibenzo[b,d]furan-1-carboxamide]",13.2,–,267 to 268,–,–,–
"CCOC(=O)CNC(=O)Nc1ccc2oc3c(OC)ccc(C(=O)Nc4c(Cl)cncc4Cl)c3c2c1 [Example 50, N-(3,5-dichloropyrid-4-yl)-4-methoxy-8-(2-ethoxy-2-oxo-ethylaminocarbonylamino)-dibenzo[b,d]furan-1-carboxamide]",9.93,147,> 250,–,–,–
"COc1ccc(C(=O)Nc2c(Cl)cncc2Cl)c2c1oc1ccc(NC(=O)NCC(=O)O)cc12 [Example 51, N-(3,5-dichloropyrid-4-yl)-4-methoxy-8-(2-hydroxy-2-oxo-ethylaminocarbonylamino)-dibenzo[b,d]furan-1-carboxamide]",1.98,122,–,–,–,–
"CCOC(=O)CNc1ccc2oc3c(OC)ccc(C(=O)Nc4c(Cl)cncc4Cl)c3c2c1 [Example 52, N-(3,5-dichloropyrid-4-yl)-4-methoxy-8-(2-ethoxy-2-oxo-ethylamino)-dibenzo[b,d]furan-1-carboxamide]",8.13,821,–,–,–,–
"COc1ccc(C(=O)Nc2c(Cl)cncc2Cl)c2c1oc1ccc(NCC(=O)O)cc12 [Example 53, N-(3,5-dichloropyrid-4-yl)-4-methoxy-8-(2-hydroxy-2-oxo-ethylamino)-dibenzo[b,d]furan-1-carboxamide]",1.05,71.5,–,–,–,–
